Source: US20230067378A1, “COMPOSITIONS AND METHODS FOR THE TREATMENT OF ESTROGEN-DEPENDENT DISORDERS” (ObsEva S.A., priority 2018, published 2023)

System: pre-menopausal women
Experiment: uterine bleeding pattern, clinical trial of compound (VI) 200 mg per day (choline salt) with add-back therapy (1.0 mg E2, 0.5 mg norethindrone acetate)
Format: in vivo, human
Description: The experiments described in this example were conducted as part of a single-center, open-label, randomized, parallel-group clinical trial in 32 pre-menopausal women. Following screening assessments, and during the second half of the menstrual cycle, women received norethindrone (5 mg, three-times daily for 10 days) to synchronize menstrual cycles. After menstrual cycle synchronization, subjects were randomized with a 1:1 ratio to one of two treatment arms: (i) a cohort receiving once-daily administration of compound (VI) (200 mg per day, administered in the form of a choline salt) with concurrent onset of add-back therapy administration for 10 weeks (“Concurrent-ABT”), or (ii) a cohort receiving pre-treatment with compound (VI) (200 mg per day, administered in the form of a choline salt) for 4 weeks followed by combined daily administration of compound (VI) and add-back therapy (“Delayed-ABT”). The add-back therapy used in these experiments contained 1.0 mg of E2 and 0.5 mg of norethindrone acetate, and was administered to subjects once daily.
The main treatment outcomes and endpoints measured during these experiments included (i) a qualitative assessment of uterine blood loss, which was recorded on a daily basis throughout the study by characterizing each subject's bleeding pattern using one of the following four categories: “no bleeding,” “spotting” (light staining, dark blood, no sanitary protection needed or only panty liner), “bleeding” (1-4 completely soiled maxi sanitary towels or 1-8 soiled tampons or equivalent combination of the two), or “heavy bleeding” (>4 completely soiled maxi sanitary towels or >8 soiled tampons or equivalent combination of the two); (ii) a bi-weekly assessment of each subject's circulating E2 concentration; (iii) a bi-weekly assessment of each subject's circulating progesterone concentration (measured using a validated commercial chemiluminescence immunoassay method (Elecsys Progesterone III, Roche, Burgess Hill, UK)); (iv) the pharmacokinetic profile of compound (VI) and the add-back therapy; and (v) adverse events.

[1] = Days 29-42, treatment A (Concurrent-ABT), N=14
[2] = Days 29-42, treatment B (Delayed-ABT), N=15
[3] = Days 43-56, Overall (A+B), N=29
[4] = Days 43-56, treatment A (Concurrent-ABT), N=14
[5] = Days 43-56, treatment B (Delayed-ABT), N=15
[6] = Days 57-70, Overall (A+B), N=29
[7] = Days 57-70, treatment A (Concurrent-ABT), N=14
[8] = Days 57-70, treatment B (Delayed-ABT), N=15
[9] = Delayed-ABT cohort, after add-back therapy was initiated in week 5

COc1cc(F)c(-n2c(=O)[nH]c3csc(C(=O)O)c3c2=O)cc1OCc1c(OC)ccc(F)c1F [Compound (VI), 3-[2-fluoro-5-(2,3-difluoro-6-methoxybenzyloxy)4-methoxyphenyl]-2,4-dioxo-1,2,3,4-tetrahydrothieno [3,4d]pyrimidine-5-carboxylic acid]
No Bleeding or Spotting, subjects (n), Plasma Estradiol Level 20-50 pg/mL [1]: 9
No Bleeding or Spotting, subjects (n), Plasma Estradiol Level <20 pg/mL [1]: 1
No Bleeding or Spotting, subjects (n), Plasma Estradiol Level >50 pg/mL [1]: 3
No Bleeding, subjects (%), Plasma Estradiol Level 20-50 pg/mL [1]: (50.0%)
No Bleeding, subjects (%), Plasma Estradiol Level <20 pg/mL [1]: (7.1%)
No Bleeding, subjects (%), Plasma Estradiol Level >50 pg/mL [1]: (21.4%)
No Bleeding, subjects (n), Plasma Estradiol Level 20-50 pg/mL [1]: 7
No Bleeding, subjects (n), Plasma Estradiol Level <20 pg/mL [1]: 1
No Bleeding, subjects (n), Plasma Estradiol Level >50 pg/mL [1]: 3
No Bleeding or Spotting, subjects (%), Plasma Estradiol Level 20-50 pg/mL [2]: (46.7%)
No Bleeding or Spotting, subjects (%), Plasma Estradiol Level <20 pg/mL [2]: (20.0%)
No Bleeding or Spotting, subjects (%), Plasma Estradiol Level >50 pg/mL [2]: (20.0%)
No Bleeding or Spotting, subjects (n), Plasma Estradiol Level 20-50 pg/mL [2]: 7
No Bleeding or Spotting, subjects (n), Plasma Estradiol Level <20 pg/mL [2]: 3
No Bleeding or Spotting, subjects (n), Plasma Estradiol Level >50 pg/mL [2]: 3
No Bleeding, subjects (%), Plasma Estradiol Level 20-50 pg/mL [2]: (33.3%)
No Bleeding, subjects (%), Plasma Estradiol Level <20 pg/mL [2]: (20.0%)
No Bleeding, subjects (%), Plasma Estradiol Level >50 pg/mL [2]: (13.3%)
No Bleeding, subjects (n), Plasma Estradiol Level 20-50 pg/mL [2]: 5
No Bleeding, subjects (n), Plasma Estradiol Level <20 pg/mL [2]: 3
No Bleeding, subjects (n), Plasma Estradiol Level >50 pg/mL [2]: 2
No Bleeding or Spotting, subjects (%), Plasma Estradiol Level 20-50 pg/mL [3]: (51.7%)
No Bleeding or Spotting, subjects (%), Plasma Estradiol Level <20 pg/mL [3]: (13.8%)
No Bleeding or Spotting, subjects (%), Plasma Estradiol Level >50 pg/mL [3]: (17.2%)
No Bleeding or Spotting, subjects (n), Plasma Estradiol Level 20-50 pg/mL [3]: 15
No Bleeding or Spotting, subjects (n), Plasma Estradiol Level <20 pg/mL [3]: 4
No Bleeding or Spotting, subjects (n), Plasma Estradiol Level >50 pg/mL [3]: 5
No Bleeding, subjects (%), Plasma Estradiol Level 20-50 pg/mL [3]: (37.9%)
No Bleeding, subjects (%), Plasma Estradiol Level <20 pg/mL [3]: (10.3%)
No Bleeding, subjects (%), Plasma Estradiol Level >50 pg/mL [3]: (13.8%)
No Bleeding, subjects (n), Plasma Estradiol Level 20-50 pg/mL [3]: 11
No Bleeding, subjects (n), Plasma Estradiol Level <20 pg/mL [3]: 3
No Bleeding, subjects (n), Plasma Estradiol Level >50 pg/mL [3]: 4
No Bleeding or Spotting, subjects (%), Plasma Estradiol Level 20-50 pg/mL [4]: (57.1%)
No Bleeding or Spotting, subjects (%), Plasma Estradiol Level <20 pg/mL [4]: (7.1%)
No Bleeding or Spotting, subjects (%), Plasma Estradiol Level >50 pg/mL [4]: (21.4%)
No Bleeding or Spotting, subjects (n), Plasma Estradiol Level 20-50 pg/mL [4]: 8
No Bleeding or Spotting, subjects (n), Plasma Estradiol Level <20 pg/mL [4]: 1
No Bleeding or Spotting, subjects (n), Plasma Estradiol Level >50 pg/mL [4]: 3
No Bleeding, subjects (%), Plasma Estradiol Level 20-50 pg/mL [4]: (50.0%)
No Bleeding, subjects (%), Plasma Estradiol Level <20 pg/mL [4]: (7.1%)
No Bleeding, subjects (%), Plasma Estradiol Level >50 pg/mL [4]: (21.4%)
No Bleeding, subjects (n), Plasma Estradiol Level 20-50 pg/mL [4]: 7
No Bleeding, subjects (n), Plasma Estradiol Level <20 pg/mL [4]: 1
No Bleeding, subjects (n), Plasma Estradiol Level >50 pg/mL [4]: 3
No Bleeding or Spotting, subjects (%), Plasma Estradiol Level 20-50 pg/mL [5]: (46.7%)
No Bleeding or Spotting, subjects (%), Plasma Estradiol Level <20 pg/mL [5]: (20.0%)
No Bleeding or Spotting, subjects (%), Plasma Estradiol Level >50 pg/mL [5]: (13.3%)
No Bleeding or Spotting, subjects (n), Plasma Estradiol Level 20-50 pg/mL [5]: 7
No Bleeding or Spotting, subjects (n), Plasma Estradiol Level <20 pg/mL [5]: 7
No Bleeding or Spotting, subjects (n), Plasma Estradiol Level >50 pg/mL [5]: 2
No Bleeding, subjects (%), Plasma Estradiol Level 20-50 pg/mL [5]: (26.7%)
No Bleeding, subjects (%), Plasma Estradiol Level <20 pg/mL [5]: (13.3%)
No Bleeding, subjects (%), Plasma Estradiol Level >50 pg/mL [5]: (6.7%)
No Bleeding, subjects (n), Plasma Estradiol Level 20-50 pg/mL [5]: 4
No Bleeding, subjects (n), Plasma Estradiol Level <20 pg/mL [5]: 2
No Bleeding, subjects (n), Plasma Estradiol Level >50 pg/mL [5]: 1
No Bleeding or Spotting, subjects (%), Plasma Estradiol Level 20-50 pg/mL [6]: (48.3%)
No Bleeding or Spotting, subjects (%), Plasma Estradiol Level <20 pg/mL [6]: (20.7%)
No Bleeding or Spotting, subjects (%), Plasma Estradiol Level >50 pg/mL [6]: (13.8%)
No Bleeding or Spotting, subjects (n), Plasma Estradiol Level 20-50 pg/mL [6]: 14
No Bleeding or Spotting, subjects (n), Plasma Estradiol Level <20 pg/mL [6]: 6
No Bleeding or Spotting, subjects (n), Plasma Estradiol Level >50 pg/mL [6]: 4
No Bleeding, subjects (%), Plasma Estradiol Level 20-50 pg/mL [6]: (41.4%)
No Bleeding, subjects (%), Plasma Estradiol Level <20 pg/mL [6]: (20.7%)
No Bleeding, subjects (%), Plasma Estradiol Level >50 pg/mL [6]: (10.3%)
No Bleeding, subjects (n), Plasma Estradiol Level 20-50 pg/mL [6]: 12
No Bleeding, subjects (n), Plasma Estradiol Level <20 pg/mL [6]: 6
No Bleeding, subjects (n), Plasma Estradiol Level >50 pg/mL [6]: 3
No Bleeding or Spotting, subjects (%), Plasma Estradiol Level 20-50 pg/mL [7]: (50.0%)
No Bleeding or Spotting, subjects (%), Plasma Estradiol Level <20 pg/mL [7]: (21.4%)
No Bleeding or Spotting, subjects (%), Plasma Estradiol Level >50 pg/mL [7]: (21.4%)
No Bleeding or Spotting, subjects (n), Plasma Estradiol Level 20-50 pg/mL [7]: 7
No Bleeding or Spotting, subjects (n), Plasma Estradiol Level <20 pg/mL [7]: 3
No Bleeding or Spotting, subjects (n), Plasma Estradiol Level >50 pg/mL [7]: 3
No Bleeding, subjects (%), Plasma Estradiol Level 20-50 pg/mL [7]: (42.9%)
No Bleeding, subjects (%), Plasma Estradiol Level <20 pg/mL [7]: (21.4%)
No Bleeding, subjects (%), Plasma Estradiol Level >50 pg/mL [7]: (21.4%)
No Bleeding, subjects (n), Plasma Estradiol Level 20-50 pg/mL [7]: 6
No Bleeding, subjects (n), Plasma Estradiol Level <20 pg/mL [7]: 3
No Bleeding, subjects (n), Plasma Estradiol Level >50 pg/mL [7]: 3
No Bleeding or Spotting, subjects (%), Plasma Estradiol Level 20-50 pg/mL [8]: (46.7%)
No Bleeding or Spotting, subjects (%), Plasma Estradiol Level <20 pg/mL [8]: (20.0%)
No Bleeding or Spotting, subjects (%), Plasma Estradiol Level >50 pg/mL [8]: (6.7%)
No Bleeding or Spotting, subjects (n), Plasma Estradiol Level 20-50 pg/mL [8]: 7
No Bleeding or Spotting, subjects (n), Plasma Estradiol Level <20 pg/mL [8]: 3
No Bleeding or Spotting, subjects (n), Plasma Estradiol Level >50 pg/mL [8]: 1
No Bleeding, subjects (%), Plasma Estradiol Level 20-50 pg/mL [8]: (40.0%)
No Bleeding, subjects (%), Plasma Estradiol Level <20 pg/mL [8]: (20.0%)
No Bleeding, subjects (%), Plasma Estradiol Level >50 pg/mL [8]: (0.0%)
No Bleeding, subjects (n), Plasma Estradiol Level 20-50 pg/mL [8]: 6
No Bleeding, subjects (n), Plasma Estradiol Level <20 pg/mL [8]: 3
No Bleeding, subjects (n), Plasma Estradiol Level >50 pg/mL [8]: 0
uterine bleeding / amenorrhea (Delayed-ABT cohort, Compound (VI) alone (first 4 weeks), FIG. 1A): amenorrhea in all subjects by week 5
bleeding, frequency [9]: ≤ 8%
spotting, frequency [9]: ≤ 11%
women in amenorrhea within 5 days of treatment (Delayed-ABT group): ~20%
women in amenorrhea (Delayed-ABT group, last 4 weeks of treatment, p=0.03): 40%
Uterine Bleeding Pattern: amenorrhea (Delayed-ABT, Weeks 2-4, achieved in week 5): almost 100% amenorrhea (achieved in week 5)
Uterine Bleeding Pattern: onset of spotting and bleeding (Delayed-ABT, Weeks 6-10): Spotting and bleeding began after 1 week of add-
